In article PMC7486443, “Generation of Phenothiazine with Potent Anti-TLK1 Activity for Prostate Cancer Therapy” (iScience, 2020):

Legend:
Assay in all cases: biochemical
Design in all cases: DiscoverX KINOMEscan scanMAX competition binding panel, single concentration, percent of control; remaining binding: dose or concentration left out as unconfirmed
Settings in all cases: KINOMEscan binding, percent of control; read-out: Table S4_SCANMAX REPORT - related to Fig. 1 / Percent Control
TESK1 = TESK1 (Homo sapiens, UniProt Q15569)
ADCK4 = target: T1, ADCK4 (Homo sapiens, UniProt Q96D53)
T1 construct: gene COQ8B

TTK = TTK (Homo sapiens, UniProt P33981)
EPHA4 = EPHA4 (Homo sapiens, UniProt P54764)
YSK4 = target: T2, YSK4 (Homo sapiens, UniProt Q56UN5)
T2 construct: gene MAP3K19

PIK3CB = PIK3CB (Homo sapiens, UniProt P42338)
ACVRL1 = ACVRL1 (Homo sapiens, UniProt P37023)
PLK2 = PLK2 (Homo sapiens, UniProt Q9NYY3)
PFPK5(P.falciparum) = target: T3, PFPK5(P.falciparum) (Plasmodium falciparum, UniProt P61075)
T3 construct: gene MAL13P1.279

TXK = TXK (Homo sapiens, UniProt P42681)
[1] = target: T4, ABL1(E255K)-phosphorylated (Homo sapiens, UniProt P00519, E255K)
T4 construct: phosphorylated

ABL2 = ABL2 (Homo sapiens, UniProt P42684)
BRAF(V600E) = BRAF(V600E) (Homo sapiens, UniProt P15056, V600E)
AKT1 = AKT1 (Homo sapiens, UniProt P31749)
TSSK1B = TSSK1B (Homo sapiens, UniProt Q9BXA7)
GRK4 = GRK4 (Homo sapiens, UniProt P32298)
ANKK1 = ANKK1 (Homo sapiens, UniProt Q8NFD2)
PIK3CA(C420R) = PIK3CA(C420R) (Homo sapiens, UniProt P42336, C420R)

T1 sequence (Q96D53 whole entry): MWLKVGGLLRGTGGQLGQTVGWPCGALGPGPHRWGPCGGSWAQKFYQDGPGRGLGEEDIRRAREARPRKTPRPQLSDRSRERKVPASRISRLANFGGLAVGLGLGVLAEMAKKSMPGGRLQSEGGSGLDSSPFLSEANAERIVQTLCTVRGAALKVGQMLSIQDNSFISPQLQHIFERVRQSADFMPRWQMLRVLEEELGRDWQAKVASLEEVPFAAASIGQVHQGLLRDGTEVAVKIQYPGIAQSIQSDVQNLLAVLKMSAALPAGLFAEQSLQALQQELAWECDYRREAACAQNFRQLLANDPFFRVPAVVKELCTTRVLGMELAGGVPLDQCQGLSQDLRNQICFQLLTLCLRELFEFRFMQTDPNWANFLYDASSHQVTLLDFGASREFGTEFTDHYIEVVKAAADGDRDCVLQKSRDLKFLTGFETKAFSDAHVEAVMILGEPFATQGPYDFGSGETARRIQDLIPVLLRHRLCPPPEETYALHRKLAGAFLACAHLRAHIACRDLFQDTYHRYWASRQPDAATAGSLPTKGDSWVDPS
EPHA4, sequence (P54764 whole entry): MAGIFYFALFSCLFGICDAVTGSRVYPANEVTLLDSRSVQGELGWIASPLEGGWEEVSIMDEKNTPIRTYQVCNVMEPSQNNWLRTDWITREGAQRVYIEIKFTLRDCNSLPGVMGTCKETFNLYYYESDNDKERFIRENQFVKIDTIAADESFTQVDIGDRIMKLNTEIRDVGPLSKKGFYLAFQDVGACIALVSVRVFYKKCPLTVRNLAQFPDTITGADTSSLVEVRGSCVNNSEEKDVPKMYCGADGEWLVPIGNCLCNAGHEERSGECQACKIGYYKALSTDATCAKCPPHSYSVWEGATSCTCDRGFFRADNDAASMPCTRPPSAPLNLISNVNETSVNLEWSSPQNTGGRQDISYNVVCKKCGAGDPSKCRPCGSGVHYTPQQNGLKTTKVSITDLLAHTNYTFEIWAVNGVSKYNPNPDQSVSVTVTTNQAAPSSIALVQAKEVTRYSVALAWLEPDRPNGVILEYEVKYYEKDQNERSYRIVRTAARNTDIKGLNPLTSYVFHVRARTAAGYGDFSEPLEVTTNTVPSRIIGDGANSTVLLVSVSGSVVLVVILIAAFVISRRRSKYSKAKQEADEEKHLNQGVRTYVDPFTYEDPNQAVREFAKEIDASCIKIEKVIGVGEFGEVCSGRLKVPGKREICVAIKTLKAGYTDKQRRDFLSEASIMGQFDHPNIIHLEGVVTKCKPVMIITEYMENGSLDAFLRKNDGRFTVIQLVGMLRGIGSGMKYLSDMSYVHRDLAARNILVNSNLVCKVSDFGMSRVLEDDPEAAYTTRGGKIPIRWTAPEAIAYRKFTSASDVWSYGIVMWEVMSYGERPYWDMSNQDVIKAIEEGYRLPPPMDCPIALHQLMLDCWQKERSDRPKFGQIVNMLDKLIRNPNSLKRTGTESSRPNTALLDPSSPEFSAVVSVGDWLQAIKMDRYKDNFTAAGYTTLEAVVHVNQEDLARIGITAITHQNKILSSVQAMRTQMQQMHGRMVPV
PLK2, sequence (Q9NYY3 whole entry): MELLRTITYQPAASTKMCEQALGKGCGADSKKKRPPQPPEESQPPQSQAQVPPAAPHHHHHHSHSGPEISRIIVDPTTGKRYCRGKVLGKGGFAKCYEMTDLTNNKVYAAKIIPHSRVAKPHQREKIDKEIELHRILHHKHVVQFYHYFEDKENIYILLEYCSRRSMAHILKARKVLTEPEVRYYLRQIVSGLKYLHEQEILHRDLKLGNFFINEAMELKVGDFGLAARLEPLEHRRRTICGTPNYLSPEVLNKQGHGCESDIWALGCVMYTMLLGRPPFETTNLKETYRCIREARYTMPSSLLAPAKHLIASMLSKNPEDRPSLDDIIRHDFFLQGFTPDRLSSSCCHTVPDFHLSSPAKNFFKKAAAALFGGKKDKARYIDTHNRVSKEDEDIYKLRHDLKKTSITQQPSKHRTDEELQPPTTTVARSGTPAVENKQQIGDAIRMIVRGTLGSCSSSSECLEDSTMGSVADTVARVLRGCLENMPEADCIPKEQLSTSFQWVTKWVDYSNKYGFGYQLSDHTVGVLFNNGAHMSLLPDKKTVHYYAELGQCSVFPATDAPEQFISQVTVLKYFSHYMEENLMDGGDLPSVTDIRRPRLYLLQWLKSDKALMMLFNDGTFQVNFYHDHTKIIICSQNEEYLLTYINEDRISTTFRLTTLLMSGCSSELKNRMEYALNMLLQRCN
ANKK1, sequence (Q8NFD2 whole entry): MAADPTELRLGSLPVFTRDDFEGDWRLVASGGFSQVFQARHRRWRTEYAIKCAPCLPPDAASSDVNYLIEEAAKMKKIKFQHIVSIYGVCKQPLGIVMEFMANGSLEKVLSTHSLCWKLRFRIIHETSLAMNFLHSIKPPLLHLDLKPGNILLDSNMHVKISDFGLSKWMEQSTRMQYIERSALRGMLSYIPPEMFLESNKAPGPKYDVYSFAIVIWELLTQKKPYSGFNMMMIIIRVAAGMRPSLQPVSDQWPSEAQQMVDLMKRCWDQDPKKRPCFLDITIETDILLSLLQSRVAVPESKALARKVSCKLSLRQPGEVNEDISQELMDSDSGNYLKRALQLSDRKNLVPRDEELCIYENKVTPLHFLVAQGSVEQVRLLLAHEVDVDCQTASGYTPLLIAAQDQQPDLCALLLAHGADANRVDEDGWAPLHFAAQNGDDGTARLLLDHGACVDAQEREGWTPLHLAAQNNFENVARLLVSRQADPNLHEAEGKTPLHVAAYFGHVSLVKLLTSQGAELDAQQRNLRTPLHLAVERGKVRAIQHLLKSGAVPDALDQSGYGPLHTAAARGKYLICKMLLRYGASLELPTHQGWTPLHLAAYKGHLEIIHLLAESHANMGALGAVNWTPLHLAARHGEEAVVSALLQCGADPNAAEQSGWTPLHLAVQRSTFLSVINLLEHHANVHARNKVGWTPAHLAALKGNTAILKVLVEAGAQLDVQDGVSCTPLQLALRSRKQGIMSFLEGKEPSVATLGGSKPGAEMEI
TXK, sequence (P42681 whole entry): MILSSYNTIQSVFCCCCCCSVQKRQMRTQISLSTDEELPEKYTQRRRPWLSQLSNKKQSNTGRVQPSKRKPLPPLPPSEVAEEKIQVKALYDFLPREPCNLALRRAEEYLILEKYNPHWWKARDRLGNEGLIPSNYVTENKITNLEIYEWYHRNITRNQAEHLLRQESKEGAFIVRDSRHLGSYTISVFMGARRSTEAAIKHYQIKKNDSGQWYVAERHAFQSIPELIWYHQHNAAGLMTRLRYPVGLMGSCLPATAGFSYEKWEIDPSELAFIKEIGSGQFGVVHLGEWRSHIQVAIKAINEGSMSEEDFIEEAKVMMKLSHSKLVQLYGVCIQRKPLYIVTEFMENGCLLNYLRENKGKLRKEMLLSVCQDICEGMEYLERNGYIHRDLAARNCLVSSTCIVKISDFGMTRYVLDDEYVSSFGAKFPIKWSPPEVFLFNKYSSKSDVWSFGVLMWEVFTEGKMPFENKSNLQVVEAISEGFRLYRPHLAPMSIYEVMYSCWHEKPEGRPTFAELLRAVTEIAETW
BRAF(V600E), sequence (P15056 whole entry V600E): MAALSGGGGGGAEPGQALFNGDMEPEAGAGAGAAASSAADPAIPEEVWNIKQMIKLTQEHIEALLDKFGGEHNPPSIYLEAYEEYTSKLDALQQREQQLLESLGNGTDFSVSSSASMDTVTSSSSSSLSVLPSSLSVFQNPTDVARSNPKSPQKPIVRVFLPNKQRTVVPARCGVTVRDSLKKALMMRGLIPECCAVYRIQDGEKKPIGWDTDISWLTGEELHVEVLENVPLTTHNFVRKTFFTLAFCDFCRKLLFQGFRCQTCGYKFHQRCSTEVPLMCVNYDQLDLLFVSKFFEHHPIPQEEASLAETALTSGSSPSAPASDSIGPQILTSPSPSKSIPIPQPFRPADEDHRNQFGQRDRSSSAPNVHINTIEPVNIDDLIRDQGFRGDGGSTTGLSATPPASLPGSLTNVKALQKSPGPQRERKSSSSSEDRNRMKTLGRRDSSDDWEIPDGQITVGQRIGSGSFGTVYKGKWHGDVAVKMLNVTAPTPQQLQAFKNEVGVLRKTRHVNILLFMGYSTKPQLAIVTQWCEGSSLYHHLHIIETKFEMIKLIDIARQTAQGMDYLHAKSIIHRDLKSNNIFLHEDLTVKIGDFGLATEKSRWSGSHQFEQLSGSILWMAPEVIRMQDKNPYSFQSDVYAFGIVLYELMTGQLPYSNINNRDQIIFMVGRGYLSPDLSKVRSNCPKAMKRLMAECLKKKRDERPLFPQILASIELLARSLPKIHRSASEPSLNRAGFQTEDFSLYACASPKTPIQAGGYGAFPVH
GRK4, sequence (P32298 whole entry): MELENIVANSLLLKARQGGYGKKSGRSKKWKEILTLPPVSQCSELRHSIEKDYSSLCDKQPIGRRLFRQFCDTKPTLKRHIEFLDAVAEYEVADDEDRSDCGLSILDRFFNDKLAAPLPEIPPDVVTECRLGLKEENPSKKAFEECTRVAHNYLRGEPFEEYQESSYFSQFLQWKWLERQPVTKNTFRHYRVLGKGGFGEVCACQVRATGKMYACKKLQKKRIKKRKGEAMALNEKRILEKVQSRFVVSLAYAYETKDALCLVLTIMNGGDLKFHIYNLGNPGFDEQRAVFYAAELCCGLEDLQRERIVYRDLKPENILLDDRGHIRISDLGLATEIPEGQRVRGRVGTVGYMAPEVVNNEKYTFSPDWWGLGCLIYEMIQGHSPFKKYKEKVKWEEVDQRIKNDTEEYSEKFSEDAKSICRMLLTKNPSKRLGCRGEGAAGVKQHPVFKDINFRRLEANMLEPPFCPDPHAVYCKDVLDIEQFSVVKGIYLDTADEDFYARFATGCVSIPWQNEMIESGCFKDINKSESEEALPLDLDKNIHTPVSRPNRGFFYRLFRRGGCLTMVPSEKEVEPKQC

Question: What does the source list for `c1ccc2c(c1)Sc1ccccc1N2CCN1CCOCC1` [J54]?
Answer: remaining binding (TESK1): 100%; remaining binding (ADCK4): 75%; remaining binding (TTK): 17%; remaining binding (EPHA4): 100%; remaining binding (YSK4): 86%; remaining binding (PIK3CB): 100%; remaining binding (ACVRL1): 100%; remaining binding (PLK2): 100%; remaining binding (PFPK5(P.falciparum)): 98%; remaining binding (TXK): 99%; remaining binding [1]: 86%; remaining binding (ABL2): 100%; remaining binding (BRAF(V600E)): 100%; remaining binding (AKT1): 97%; remaining binding (TSSK1B): 59%; remaining binding (GRK4): 54%; remaining binding (ANKK1): 100%; remaining binding (PIK3CA(C420R)): 88%
